Results taken from patent publication US7514432B2, “Compounds and methods of treating cell proliferative diseases, retinopathies and arthritis” (Exonhit Therapeutics SA, priority 2003, dated 2009).
Where two headings read alike, the source gives them in different places.

Key:
NIH 3T3 = assay: Cell viability assay (MTT), NIH 3T3; assay type: cell-based, mouse; settings: 10% FBS, 1% DMSO
Summary of the method: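 MTT viability in medium with 10% FBS and 1% DMSO, with cells seeded 24 h before treatment at 0–200 μM (11 concentrations). There were two formats: 6-day (3–15 10^3 cells, re-fed every 3 days) or 16-hour (5–10 10^4 cells). Absorbance was read at 550 nm, giving IC50 (50% cell death) as mean±SEM.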

[1] = tested on: Salmonella typhimurium TA 98 and TA 100 strains; assay: Screening Ames test; settings: with and without S9 mix; 10 to 5000 μg per plate
Excerpt: The objective of this study was to evaluate the potential of the test items to induce reverse mutation in Salmonella Typhimurium (TA 98 and TA 100 strains). The bacterial reverse mutation test is able to identify substances that cause point mutations, by substitution, addition or deletion of one or a few DNA base-pairs. Mutagenic substances can induce reversion in histidine deficient strains which are then able to grow and form colonies in a histidine-limited medium, while non-reverted cannot. This test is performed in the absence and presence of a rat liver metabolising system (S9 mix). Three known mutagens are used to check sensitivity of test system: sodium azide, 2-nitrofluorene and 2-anthramine.
The dose levels per plate were of 10 to 5000 μg. A preliminary toxicity test was performed followed by the mutagenecity test per se.

HCT116 = assay: Cell viability assay (MTT), HCT116; assay type: cell-based, human; settings: 1% DMSO
Summary of the method: (§1)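 Cells seeded 24 h before treatment with 0–200 μM compound (11 concentrations, 1% DMSO final) in 10% or 0.5% FBS medium; exposure 16 h, 3 or 6 days, fed every 3 days in 6-day runs. MTT 0.5 mg/ml read at 550 nm; IC50 from dose-response curves, mean±SEM.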

MDA-MB-231 = assay: Cell viability assay (MTT), MDA-MB-231; assay type: cell-based, human; settings: 1% DMSO
Summary of the method: as §1

[2] = Mus musculus, NIH3T3, 16 h, 16-hours treatment
[3] = Mus musculus, NIH3T3, 144 h, 6-day treatment
[4] = Homo sapiens, HCT-116, 16 h, 10% FBS, 16-hours treatment
[5] = Homo sapiens, HCT-116, 72 h, 10% FBS, 3-day treatment
[6] = Homo sapiens, HCT-116, 144 h, 0.5% FBS, 6-day treatment
[7] = Homo sapiens, HCT-116, 144 h, 10% FBS, 6-day treatment
[8] = Homo sapiens, MDA-MB-231, 16 h, 10% FBS, 16-hours treatment, read-out: IC50 μM, MDA-MB-231
[9] = Homo sapiens, MDA-MB-231, 72 h, 10% FBS, 3-day treatment, read-out: IC50 μM, MDA-MB-231
[10] = Homo sapiens, MDA-MB-231, 144 h, 0.5% FBS, 6-day treatment, read-out: IC50 (μM), MDA-MB-231
[11] = 10% FBS, 6-day treatment, trihydrochloride

SMILES | IC50 (NIH 3T3; [2]) [µM] | IC50 (NIH 3T3; [3]) [µM] | mutagenic activity [1] | IC50 (HCT116; 10% FBS, 6-day treatment, dihydrochloride) [µM] | IC50 (HCT116; [4]) [µM] | IC50 (HCT116; [5]) [µM] | IC50 (HCT116; [6]) [µM] | IC50 (HCT116; [7]) [µM] | IC50 (MDA-MB-231; 10% FBS, 6-day treatment, dihydrochloride, read-out: IC50 μM, MDA-MB-231) [µM] | IC50 (MDA-MB-231; [8]) [µM] | IC50 (MDA-MB-231; [9]) [µM] | IC50 (MDA-MB-231; [10]) [µM] | IC50 (MDA-MB-231; Homo sapiens, MDA-MB-231, 144 h, 10% FBS, 6-day treatment, read-out: IC50 μM, MDA-MB-231) [µM] | IC50 (HCT116; [11]) [µM] | IC50 (NIH 3T3; 6-day treatment, trihydrochloride) [µM] | IC50 (MDA-MB-231; 10% FBS, 6-day treatment, trihydrochloride, read-out: IC50 μM, MDA-MB-231) [µM]
Cl.Cl.O=c1cc(CN2CCOCC2)occ1OCCCCCSc1ccnc2cc(C(F)(F)F)ccc12 [EHT 1864, 5-(5-(7-(Trifluoromethyl)quinolin-4-ylthio)pentyloxy)-2-(morpholinomethyl)-4H-pyran-4-one dihydrochloride] | 69.3 | 19.8 | did not show any mutagenic activity | 2.7 | 37 | 6.1 | 6.6 | < 4 | 9.3 | 126 | 9.9 | 6.3 | < 9 | – | – | –
Cl.Cl.Cl.O=c1cc(CN2CCNCC2)occ1OCCCCCSc1ccnc2cc(C(F)(F)F)ccc12 [EHT 8560, 5-(5-(7-(Trifluoromethyl)quinolin-4-ylthio)pentyloxy)-2-((piperazin-1-yl)methyl)-4H-pyran-4-one trihydrochloride] | – | 5.1 | did not show any mutagenic activity | – | – | 4 | 4.6 | < 4 | – | – | 9 | 4 | – | 3.8 | – | –
CN1CCN(Cc2cc(=O)c(OCCCCCSc3ccnc4cc(C(F)(F)F)ccc34)co2)CC1.Cl.Cl.Cl [EHT 9241, 5-(5-(7-(Trifluoromethyl)quinolin-4-ylthio)pentyloxy)-2-((4-methylpiperazin-1-yl)methyl)-4H-pyran-4-one trihydrochloride] | 25.6 | – | did not show any mutagenic activity | – | 31.3 | 5.7 | 6.2 | < 4 | – | 48.4 | 11.1 | 3.8 | – | 4 | 8.7 | 5.3
